Columns and labels:
Assay type in all cases: biochemical
[1] = molecular target: PKR(R510Q) (Homo sapiens, UniProt P30613, R510Q); experiment: Luminescence Assay Protocol (Kinase Glo Plus), PKR(R510Q/without FBP); conditions: PKRR510Q, without FBP; for activation at 1.54 µM: compound 1.54 μM, read-out: F - AC50 LUM KGP woFBP % Fold @ 1.54 μM mean; for AC50: gmean, read-out: D - AC50 LUM KGP woFBP AC50 μM gmean; for Emax: read-out: E - AC50 LUM KGP woFBP MAX % FOLD mean
Description: (§1) Example 47: PKR(Wt/without FBP), PKR(G332S/with FBP), PKR(R510Q/without FBP)
(§2) The phosphorylation of Adenosine-5′-diphosphate (ADP) by various mutants of PKR was determined by the Kinase Glo Plus Assay (Promega) in the presence or absence of FBP [D-Fructose-1,6-diphosphate; BOC Sciences, CAS: 81028-91-3] as follows. Unless otherwise indicated, all reagents were purchased from Sigma-Aldrich. All reagents were prepared in buffer containing 50 mM Tris-HCl, 100 mM KCl, 5 mM MgCl2, and 0.01% Triton X100, 0.03% BSA, and 1 mM DTT. Enzyme and PEP [Phospho(enol) pyruvic acid] were added at 2× to all wells of an assay-ready plate containing serial dilutions of test compounds or DMSO vehicle. Final enzyme concentrations for PKR(wt), PKR(R510Q), and PKR(G332S) were 0.8 nM, 0.8 nM, and 10 nM respectively. Final PEP concentration was 100 μM. The Enzyme/PEP mixture was incubated with compounds for 30 minutes at RT before the assay was initiated with the addition of 2×ADP [Adenosine-5′-diphosphate] and KinaseGloPlus. Final concentration of ADP was 100 μM. […] For assays containing FBP, that reagent is added at 30 μM upon reaction initiation. Reactions were allowed to progress for 45 minutes at RT until luminescence was recorded by the BMG PHERAstar FS Multilabel Reader. All compounds were tested in triplicate at concentrations ranging from 42.5 μM to 2.2 nM in 0.83% DMSO.
(§3) Luminescence values were converted to % Fold increase by normalizing to the average of the DMSO control and multiplying by 100. Max, min, slope and AC50 were determined by the standard four parameter fit algorithm of ActivityBase XE Runner. Compounds were evaluated with three parameters—AC50, MAX % Fold, and % Fold@1.54 μM (FIG. 1). The AC50 value for a compound is the concentration […] corresponding to the midway between the maximum and minimum values of the four parameter logistic curve fit (i.e., at which the % fold increase along the four parameter logistic curve fit is halfway between MAX % Fold and MIN % Fold (% Fold Midpoint)), MAX % Fold is the highest fold increase observed at any concentration of compound, and % Fold@1.54 μM is the fold increase at a compound concentration of 1.54 μM. The parameter % Fold@1.54 μM was selected to capture elements of both the AC50 and MAX % Fold and to provide a ranking based on both potency and effect. The compound concentration of 1.54 μM was chosen as one that can optimally differentiate the set of compounds based on the range of activities observed.
(§4) As set forth in Tables 6 and 7 below, AC50 values (columns A, D, G) are defined as follows: ≤0.1 μM (+++); >0.1 μM and ≤1.0 μM (++); >1.0 μM and ≤40 μM (+); >40 μM (0). Max % FOLD values (columns B, E, H) are defined as follows: ≤75% (+); >75% and ≤250% (++); >250% and ≤500% (+++). % Fold@1.54 μM values (columns C, F, I) are defined as follows: ≤75% (+); >75% and ≤250% (++); >250% and ≤500% (+++).

[2] = molecular target: PKR(G332S) (Homo sapiens, UniProt P30613, G332S); experiment: Luminescence Assay Protocol (Kinase Glo Plus), PKR(G332S/with FBP); conditions: PKRG332S, with FBP; for activation at 1.54 µM: compound 1.54 μM, read-out: C - AC50 LUM KGP FBP % Fold @ 1.54 μM mean; for AC50: gmean, read-out: A - AC50 LUM KGP FBP AC50 μM gmean; for Emax: highest % fold increase at any concentration, read-out: B - AC50 LUM KGP FBP MAX % FOLD mean
Description: as §1, §2, §3, §4

[3] = molecular target: PKR(wt) (Homo sapiens, UniProt P30613); experiment: Luminescence Assay Protocol (Kinase Glo Plus), PKR(Wt/without FBP); conditions: without FBP; for activation at 1.54 µM: compound 1.54 μM, read-out: I - AC50 LUM KGP woFBP % Fold @ 1.54 μM mean; for AC50: gmean, read-out: G - AC50 LUM KGP woFBP AC50 μM gmean; for Emax: highest % fold increase at any concentration, read-out: H - AC50 LUM KGP woFBP MAX % FOLD mean
Description: as §1, §2, §3, §4

[4] = highest % fold increase at any concentration

Sequence of PKR(wt) (P30613 whole entry): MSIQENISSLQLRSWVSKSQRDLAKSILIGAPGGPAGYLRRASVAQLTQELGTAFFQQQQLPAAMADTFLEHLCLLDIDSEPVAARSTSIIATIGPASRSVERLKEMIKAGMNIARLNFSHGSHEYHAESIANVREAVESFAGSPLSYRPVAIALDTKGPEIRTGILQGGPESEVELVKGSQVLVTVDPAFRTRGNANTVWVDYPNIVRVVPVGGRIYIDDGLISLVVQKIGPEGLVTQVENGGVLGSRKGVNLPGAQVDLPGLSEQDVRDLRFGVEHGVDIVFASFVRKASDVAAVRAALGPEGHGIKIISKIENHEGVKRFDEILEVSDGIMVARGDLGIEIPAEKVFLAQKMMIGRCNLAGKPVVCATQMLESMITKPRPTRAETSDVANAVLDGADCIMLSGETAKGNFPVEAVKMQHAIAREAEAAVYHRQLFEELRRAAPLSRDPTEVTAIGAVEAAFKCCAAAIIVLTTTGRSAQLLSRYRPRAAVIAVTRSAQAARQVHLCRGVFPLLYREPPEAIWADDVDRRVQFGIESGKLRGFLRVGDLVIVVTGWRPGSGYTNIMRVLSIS
Sequence of PKR(G332S) (P30613 whole entry G332S): as the sequence (P30613 whole entry) above, with G332S counted along it
Sequence of PKR(R510Q) (P30613 whole entry R510Q): as the sequence (P30613 whole entry) above, with R510Q counted along it

activation at 1.54 µM [1]	AC50 [1]	Emax [1, 4]	activation at 1.54 µM [2]	AC50 [2]	Emax [2]	activation at 1.54 µM [3]	AC50 [3]	Emax [3]	E - AC50 LUM KGP woFBP MAX % FOLD mean [1, 4]	Structure (SMILES)
75 to 250%	1 to 40 µM	250 to 500%								COc1ccc(S(=O)(=O)N2CC3=C(CN(C(=O)CCO)C3)C2)cc1 [Example 40, 3-hydroxy-1-(5-((4-methoxyphenyl)sulfonyl)-3,4,5,6-tetrahydropyrrolo[3,4-c]pyrrol-2(1H)-yl)propan-1-one]
75 to 250%	0.1 to 1 µM	250 to 500%	75 to 250%	≤ 0.1 µM	75 to 250%					COCCC(=O)N1CC2=C(C1)CN(S(=O)(=O)c1ccc3occc3c1)C2 [Example 58, 1-(5-(benzofuran-5-ylsulfonyl)-3,4,5,6-tetrahydropyrrolo[3,4-c]pyrrol-2(1H)-yl)-3-methoxypropan-1-one]
250 to 500%	≤ 0.1 µM	250 to 500%	75 to 250%	≤ 0.1 µM	75 to 250%	250 to 500%	≤ 0.1 µM	250 to 500%		C[C@@H](O)[C@@H](C(=O)N1CC2=C(C1)CN(S(=O)(=O)c1ccc(OC(F)F)cc1)C2)c1ccccc1 (racemic) [Example 26, (2S,3R and 2R,3S)-1-(5-((4-(difluoromethoxy)phenyl)sulfonyl)-3,4,5,6-tetrahydropyrrolo[3,4-c]pyrrol-2(1H)-yl)-3-hydroxy-2-phenylbutan-1-one]
250 to 500%	0.1 to 1 µM	250 to 500%	75 to 250%	0.1 to 1 µM	75 to 250%	75 to 250%	0.1 to 1 µM	250 to 500%		O=C([C@H](CO)c1ccccc1)N1CC2=C(C1)CN(S(=O)(=O)c1cccnc1)C2 [Example 50, (2S)-3-hydroxy-2-phenyl-1-[5-(pyridine-3-sulfonyl)-1H,2H,3H,4H,5H,6H-pyrrolo[3,4-c]pyrrol-2-yl]propan-1-one]
75 to 250%		250 to 500%	75 to 250%		75 to 250%	75 to 250%		75 to 250%		O=C([C@@H](CO)c1ccccc1)N1CC2=C(C1)CN(S(=O)(=O)c1cnc3c(c1)OCCO3)C2 (single isomer, unassigned) [Example 2]
250 to 500%	≤ 0.1 µM	250 to 500%	75 to 250%	≤ 0.1 µM	75 to 250%	75 to 250%	≤ 0.1 µM	75 to 250%		O=C([C@H](CO)c1ccccc1)N1CC2=C(C1)CN(S(=O)(=O)c1ccc3c(c1)NCCO3)C2 [Example 35, (S)-1-(5-((3,4-dihydro-2H-benzo[b][1,4]oxazin-6-yl)sulfonyl)-3,4,5,6-tetrahydropyrrolo[3,4-c]pyrrol-2(1H)-yl)-3-hydroxy-2-phenylpropan-1-one]
	0.1 to 1 µM			≤ 0.1 µM		75 to 250%	0.1 to 1 µM	75 to 250%		CC(C)(CO)C(=O)N1CC2=C(C1)CN(S(=O)(=O)c1ccc(OC(F)F)cc1)C2 [Example 7, 1-(5-((4-(difluoromethoxy)phenyl)sulfonyl)-3,4,5,6-tetrahydropyrrolo[3,4-c]pyrrol-2(1H)-yl)-3-hydroxy-2,2-dimethylpropan-1-one]
250 to 500%	≤ 0.1 µM	250 to 500%	75 to 250%	≤ 0.1 µM	75 to 250%	250 to 500%	≤ 0.1 µM	250 to 500%		O=C(C(CO)c1ccccn1)N1CC2=C(C1)CN(S(=O)(=O)c1ccc(OC(F)F)cc1)C2 (single isomer, unassigned) [Example 41, (S or R)-1-(5-((4-(difluoromethoxy)phenyl)sulfonyl)-3,4,5,6-tetrahydropyrrolo[3,4-c]pyrrol-2(1H)-yl)-3-hydroxy-2-(pyridin-2-yl)propan-1-one]
				≤ 0.1 µM						O=C(C(CO)c1ccccn1)N1CC2=C(C1)CN(S(=O)(=O)c1ccc(OC(F)F)cc1)C2 (single isomer, unassigned) [Example 42, (R or S)-1-(5-((4-(difluoromethoxy)phenyl)sulfonyl)-3,4,5,6-tetrahydropyrrolo[3,4-c]pyrrol-2(1H)-yl)-3-hydroxy-2-(pyridin-2-yl)propan-1-one]
75 to 250%	1 to 40 µM					75 to 250%	1 to 40 µM	75 to 250%	++ (>75% and ≤250% (++))	O=C(C(CO)c1ccccn1)N1CC2=C(C1)CN(S(=O)(=O)c1cnc3c(c1)OCCO3)C2 (single isomer, unassigned) [Example 4, (S or R)-1-(5-((2,3-dihydro-[1,4]dioxino[2,3-b]pyridin-7-yl)sulfonyl)-3,4,5,6-tetrahydropyrrolo[3,4-c]pyrrol-2(1H)-yl)-3-hydroxy-2-(pyridin-2-yl)propan-1-one]
75 to 250%	0.1 to 1 µM	75 to 250%	75 to 250%	≤ 0.1 µM	75 to 250%					COCCC(=O)N1CC2=C(C1)CN(S(=O)(=O)c1ccc3c(c1)OCCO3)C2 [Example 57, 1-(5-((2,3-dihydrobenzo[b][1,4]dioxin-6-yl)sulfonyl)-3,4,5,6-tetrahydropyrrolo[3,4-c]pyrrol-2(1H)-yl)-3-methoxypropan-1-one]
75 to 250%	1 to 40 µM	75 to 250%	75 to 250%	> 40 µM	75 to 250%					O=C(C1COCCN1)N1CC2=C(C1)CN(S(=O)(=O)c1ccc3ncsc3c1)C2 (stereo not drawn) [Example 56, (5-(benzo[d]thiazol-6-ylsulfonyl)-3,4,5,6-tetrahydropyrrolo[3,4-c]pyrrol-2(1H)-yl)(morpholin-3-yl)methanone]
75 to 250%	≤ 0.1 µM	75 to 250%	75 to 250%	> 40 µM	75 to 250%					O=C(C(CO)c1ccccc1)N1CC2=C(C1)CN(S(=O)(=O)c1ccc3c(c1)OCCO3)C2 (stereo not drawn) [Example 18, 1-(5-((2,3-dihydrobenzo[b][1,4]dioxin-6-yl)sulfonyl)-3,4,5,6-tetrahydropyrrolo[3,4-c]pyrrol-2(1H)-yl)-3-hydroxy-2-phenylpropan-1-one]
75 to 250%	1 to 40 µM	250 to 500%				75 to 250%	1 to 40 µM	250 to 500%		O=C(CCO)N1CC2=C(C1)CN(S(=O)(=O)c1ccc(OC(F)F)cc1)C2 [Example 54, 1-(5-((4-(difluoromethoxy)phenyl)sulfonyl)-3,4,5,6-tetrahydropyrrolo[3,4-c]pyrrol-2(1H)-yl)-3-hydroxypropan-1-one]
						250 to 500%	0.1 to 1 µM	250 to 500%		O=C([C@@H]1CCOC1)N1CC2=C(C1)CN(S(=O)(=O)c1ccc3occc3c1)C2 [Example 12, (R)-(5-(benzofuran-5-ylsulfonyl)-3,4,5,6-tetrahydropyrrolo[3,4-c]pyrrol-2(1H)-yl)(tetrahydrofuran-3-yl)methanone]

Reference: patent US11649242B2, “Pyrrolopyrrole compositions as pyruvate kinase (PKR) activators” (FORMA Therapeutics, Inc., priority 2017, dated 2023)
